{
  "source": "patent US7736911B2",
  "about": "“Activity-based probes for protein tyrosine phosphatases” (Albert Einstein College of Medicine of Yeshiva University, priority 2004, dated 2010)",
  "key": {"[1]": {"test": "Stability of probe in buffers and toward nucleophiles (NMR and mass spectrometry)"}, "[2]": {"test": "Solubility in aqueous solution", "type": "physicochemical", "conditions": "compared with II"}, "[3]": {"tested_on": "PTPs, including PTP1B, HePTP, SHP2, LAR, PTPα, PTPH1, VHR, and Cdc14", "test": "PTP inactivation by BBP-based probes, several PTPs (pNPP substrate)", "type": "biochemical", "conditions": "for effectiveness at inhibiting PTP activity, I compared with II: pNPP as substrate"}, "[4]": {"tested_on": "PTPs: YopH, PTP1B, HePTP, SHP2, FAP-1, PTPα, DEP-1, VHR, Cdc14, PRL3, low molecular weight PTP", "type": "binding", "conditions": "pH 6"}, "[5]": {"tested_on": "total cell lysates from E. coli", "type": "binding"}, "[6]": {"tested_on": "panel of non-PTP enzymes/proteins", "type": "binding"}},
  "data": [
    {"compound": "O=C(CCCCC1SCC2NC(=O)NC21)NCc1ccc(C(Br)P(=O)(O)O)cc1", "note": "(stereo not shown) [Compound I, [Bromo-(4-{[5-(2-oxo-hexahydro-thieno[3,4-d]imidazol-6-yl)-pentanoylamino]-methyl}-phenyl)-methyl]-phosphonic acid]", "values": [
      {"measurement": "reaction with nucleophilic agents", "setting": "[1]; 48 hours with 100 mM DTT, 50 mM azide or 50 mM cysteine, pH 6 or 7 buffers", "result": "did not produce the expected substitution products"},
      {"measurement": "stability in buffer", "setting": "[1]; pH 6 buffers", "result": "quite stable"},
      {"measurement": "stability in buffer (solvolysis)", "setting": "[1]; pH>7", "result": "significant solvolysis could be detected"},
      {"measurement": "solubility in aqueous solution", "setting": "[2]", "result": "better solubility in aqueous solution"},
      {"measurement": "effect of scavenging nucleophiles on rate of PTP inactivation", "setting": "[3]", "result": "did not affect the rate"},
      {"measurement": "reversibility of PTP inactivation", "setting": "[3]; extensive dialysis and/or buffer exchange of the reaction mixture", "result": "irreversible"},
      {"measurement": "effectiveness at inhibiting PTP activity, I compared with II", "setting": "[3]", "result": "equally effective at inhibiting PTP activity"},
      {"measurement": "covalent labeling of PTPs", "setting": "[4]", "result": "covalently incorporated into all PTPs tested"},
      {"measurement": "labeling of E. coli proteins", "setting": "[5]", "result": "no E. coli proteins were labeled"},
      {"measurement": "reactivity towards non-PTP enzymes/proteins", "setting": "[6]", "result": "none of the proteins tested were reactive"}
    ]},
    {"compound": "O=C(CCCCC1SCC2NC(=O)NC21)NCCCCCC(=O)NCc1ccc(C(Br)P(=O)(O)O)cc1", "note": "(stereo not shown) [Compound II, {Bromo-[4-({6-[5-(2-oxo-hexahydro-thieno[3,4-d]imidazol-6-yl)-pentanoylamino]-hexanoylamino}-methyl)-phenyl]-methyl}-phosphonic acid]", "values": [
      {"measurement": "effectiveness at inhibiting PTP activity, I compared with II", "setting": "[3]", "result": "equally effective at inhibiting PTP activity"}
    ]},
    {"compound": "O=C(O)CCCC[C@@H]1SC[C@@H]2NC(=O)N[C@@H]21", "note": "[biotin, reference compound]", "values": [
      {"measurement": "covalent labeling of PTPs", "setting": "[4]", "result": "did not label the PTPs"}
    ]},
    {"compound": "arsenate [reference compound]", "values": [
      {"measurement": "protection of PTP from BBP-mediated inactivation", "setting": "[3]", "result": "able to protect PTP from BBP-mediated inactivation"}
    ]}
  ]
}
